The data set concerns CCRIS mutagenicity, Ames/micronucleus/aberration tests. In words: CCRIS mutagenicity studies.
Setting [1] is: Test System: AMES SALMONELLA TYPHIMURIUM, Strain/Indicator: TA98, Metabolic Activation: NONE, Method: PREINCUBATION
[2] abbreviates: Test System: AMES SALMONELLA TYPHIMURIUM, Strain/Indicator: TA98, Metabolic Activation: NONE, Method: STANDARD PLATE.
The mark [3] stands for this setting: Test System: AMES SALMONELLA TYPHIMURIUM, Strain/Indicator: TA98, Metabolic Activation: S-9, Method: STANDARD PLATE.
The mark [4] stands for this setting: Test System: AMES SALMONELLA TYPHIMURIUM, Strain/Indicator: TA100, Metabolic Activation: NONE, Method: PREINCUBATION
Setting [5] is: Test System: AMES SALMONELLA TYPHIMURIUM, Strain/Indicator: TA100, Metabolic Activation: NONE, Method: STANDARD PLATE.
[6] abbreviates: Test System: AMES SALMONELLA TYPHIMURIUM, Strain/Indicator: TA100, Metabolic Activation: S-9, Method: STANDARD PLATE.
[7] abbreviates: Test System: AMES SALMONELLA TYPHIMURIUM, Strain/Indicator: TA1535, Metabolic Activation: NONE, Method: PREINCUBATION
Setting [8] is: Test System: AMES SALMONELLA TYPHIMURIUM, Strain/Indicator: TA1537, Metabolic Activation: NONE, Method: PREINCUBATION
[9] abbreviates: Test System: E. COLI, Strain/Indicator: WP2 UVRA, Metabolic Activation: NONE, Method: PREINCUBATION

Among the data in PubChem BioAssay AID1259407 (Chemical Carcinogenesis Research Information System (CCRIS), 2018) are mutagenic call values, retold here.

SMILES strings stand for the structures. Calls of active or inactive are those of the source. No rule for the calls is given here.

For the compound `Cc1cc(C(C)(C)C)c(O)c(C(C)(C)C)c1`, the mutagenic call is “inactive; negative” (End Point: IN VITRO CHROMOSOMAL ABERRATIONS, Test System: CHINESE HAMSTER OVARY CELLS, Metabolic Activation: NONE); “inactive; negative; dose-related increase but it was not significant” (End Point: IN VITRO CHROMOSOMAL ABERRATIONS, Test System: CHINESE HAMSTER OVARY CELLS, Metabolic Activation: RAT, LIVER, S-9, AROCLOR 1254); “inactive; negative” (Test System: AMES SALMONELLA TYPHIMURIUM, Strain/Indicator: TA97, Metabolic Activation: NONE, Method: STANDARD PLATE); “inactive; negative” (Test System: AMES SALMONELLA TYPHIMURIUM, Strain/Indicator: TA97, Metabolic Activation: RAT, LIVER, S-9, AROCLOR 1254, Method: STANDARD PLATE); “inactive; negative” (Test System: AMES SALMONELLA TYPHIMURIUM, Strain/Indicator: TA97, Metabolic Activation: RAT, LIVER, S-9, AROCLOR, Method: STANDARD PLATE); “inactive; negative” under setting [1]. Further, the mutagenic call reads like this: under setting [2], “inactive; negative”; (Test System: AMES SALMONELLA TYPHIMURIUM, Strain/Indicator: TA98, Metabolic Activation: RAT, LIVER, S-9, AROCLOR 1254, Method: STANDARD PLATE) “inactive; negative”; (Test System: AMES SALMONELLA TYPHIMURIUM, Strain/Indicator: TA98, Metabolic Activation: RAT, LIVER, S-9, Method: PREINCUBATION) “inactive; negative”; under setting [3], “inactive; negative”; under setting [4], “inactive; negative”; under setting [5], “inactive; negative”. Besides, the mutagenic call runs as follows: (Test System: AMES SALMONELLA TYPHIMURIUM, Strain/Indicator: TA100, Metabolic Activation: RAT, LIVER, S-9, AROCLOR 1254, Method: STANDARD PLATE) “inactive; negative”; (Test System: AMES SALMONELLA TYPHIMURIUM, Strain/Indicator: TA100, Metabolic Activation: RAT, LIVER, S-9, AROCLOR, Method: STANDARD PLATE) “inactive; negative”; (Test System: AMES SALMONELLA TYPHIMURIUM, Strain/Indicator: TA100, Metabolic Activation: RAT, LIVER, S-9, Method: PREINCUBATION) “inactive; negative”; under setting [6], “inactive; negative”; (Test System: AMES SALMONELLA TYPHIMURIUM, Strain/Indicator: TA102, Metabolic Activation: NONE, Method: STANDARD PLATE) “inactive; negative”; (Test System: AMES SALMONELLA TYPHIMURIUM, Strain/Indicator: TA102, Metabolic Activation: RAT LIVER S-9, PHENOBARBITAL AND 5,6-BENZOFLAVONE, Method: STANDARD PLATE) “inactive; negative”. Further, the mutagenic call (Test System: AMES SALMONELLA TYPHIMURIUM, Strain/Indicator: TA102, Metabolic Activation: RAT, LIVER, S-9, AROCLOR, Method: STANDARD PLATE) was “inactive; negative”; the mutagenic call (Test System: AMES SALMONELLA TYPHIMURIUM, Strain/Indicator: TA104, Metabolic Activation: NONE, Method: PREINCUBATION) was “inactive; negative”; the mutagenic call (Test System: AMES SALMONELLA TYPHIMURIUM, Strain/Indicator: TA104, Metabolic Activation: NONE, Method: STANDARD PLATE) is “inactive; negative”; the mutagenic call (Test System: AMES SALMONELLA TYPHIMURIUM, Strain/Indicator: TA104, Metabolic Activation: RAT, LIVER, S-9, AROCLOR, Method: PREINCUBATION) was “inactive; negative”; the mutagenic call (Test System: AMES SALMONELLA TYPHIMURIUM, Strain/Indicator: TA104, Metabolic Activation: RAT, LIVER, S-9, AROCLOR, Method: STANDARD PLATE) is “inactive; negative”; the mutagenic call (Test System: AMES SALMONELLA TYPHIMURIUM, Strain/Indicator: TA2638, Metabolic Activation: RAT LIVER S-9, PHENOBARBITAL AND 5,6-BENZOFLAVONE, Method: STANDARD PLATE) was “inactive; negative”. The mutagenic call was “inactive; negative” (Test System: E. COLI, Strain/Indicator: WP2 (PKM101), Metabolic Activation: RAT LIVER S-9, PHENOBARBITAL AND 5,6-BENZOFLAVONE, Method: STANDARD PLATE) and “inactive; negative” (Test System: E.COLI, Strain/Indicator: WP2 UVRA (PKM101), Metabolic Activation: RAT LIVER S-9, PHENOBARBITAL AND 5,6-BENZOFLAVONE, Method: STANDARD PLATE).
As for `CC(=O)c1cc(NC(N)=O)ccc1OCC(O)CNC(C)(C)C` (centres undefined), the mutagenic call reads like this: under setting [1], “inactive; negative”; (Test System: AMES SALMONELLA TYPHIMURIUM, Strain/Indicator: TA98, Metabolic Activation: RAT, LIVER, S-9, AROCLOR 1254 (10 OR 50 µL/PLATE), Method: PREINCUBATION) “inactive; negative”; under setting [4], “inactive; negative”; (Test System: AMES SALMONELLA TYPHIMURIUM, Strain/Indicator: TA100, Metabolic Activation: RAT, LIVER, S-9, AROCLOR 1254 (10 OR 50 µL/PLATE ), Method: PREINCUBATION) “active; positive”; under setting [7], “inactive; negative”; (Test System: AMES SALMONELLA TYPHIMURIUM, Strain/Indicator: TA1535, Metabolic Activation: RAT, LIVER, S-9, AROCLOR 1254 (10 OR 50 µL/PLATE), Method: PREINCUBATION) “active; positive”. Also, the mutagenic call was “inactive; negative” under setting [8]; “inactive; negative” (Test System: AMES SALMONELLA TYPHIMURIUM, Strain/Indicator: TA1537, Metabolic Activation: RAT, LIVER, S-9, AROCLOR 1254 (10 OR 50 µL/PLATE), Method: PREINCUBATION); “inactive; negative” under setting [9]; “inactive; negative” (Test System: E. COLI, Strain/Indicator: WP2 UVRA, Metabolic Activation: RAT, LIVER, S-9, AROCLOR 1254 (10 OR 50 µL/PLATE), Method: PREINCUBATION).
With `COc1ccc(O)c2c(=O)c3c(OC)cc4c(c3oc12)C1CCOC1O4` (centres undefined), the mutagenic call is “inactive; negative” (Test System: AMES SALMONELLA TYPHIMURIUM, Strain/Indicator: TA98, Metabolic Activation: RAT, LIVER, S-9, PHENOBARBITAL, Method: STANDARD PLATE) and “inactive; negative” (Test System: AMES SALMONELLA TYPHIMURIUM, Strain/Indicator: TA100, Metabolic Activation: RAT, LIVER, S-9, PHENOBARBITAL, Method: STANDARD PLATE).
On to `C=Cc1ccc(O)c(C=C)c1`, for which the mutagenic call was “inactive; negative” under setting [2], “inactive; negative” under setting [3], “inactive; negative” under setting [5] and “inactive; negative” under setting [6].
As for `CO`, the mutagenic call under setting [1] is “inactive; negative”; the mutagenic call (Test System: AMES SALMONELLA TYPHIMURIUM, Strain/Indicator: TA98, Metabolic Activation: RAT, LIVER, S-9, KC 500, Method: PREINCUBATION) was “inactive; negative”; the mutagenic call under setting [4] is “inactive; negative”; the mutagenic call (Test System: AMES SALMONELLA TYPHIMURIUM, Strain/Indicator: TA100, Metabolic Activation: RAT, LIVER, S-9, KC 500, Method: PREINCUBATION) was “inactive; negative”; the mutagenic call under setting [7] was “inactive; negative”; the mutagenic call (Test System: AMES SALMONELLA TYPHIMURIUM, Strain/Indicator: TA1535, Metabolic Activation: RAT, LIVER, S-9, KC 500, Method: PREINCUBATION) was “inactive; negative”. The mutagenic call under setting [8] is “inactive; negative”; the mutagenic call (Test System: AMES SALMONELLA TYPHIMURIUM, Strain/Indicator: TA1537, Metabolic Activation: RAT, LIVER, S-9, KC 500, Method: PREINCUBATION) is “inactive; negative”; the mutagenic call (Test System: AMES SALMONELLA TYPHIMURIUM, Strain/Indicator: TA1538, Metabolic Activation: NONE, Method: PREINCUBATION) was “inactive; negative”; the mutagenic call (Test System: AMES SALMONELLA TYPHIMURIUM, Strain/Indicator: TA1538, Metabolic Activation: RAT, LIVER, S-9, KC 500, Method: PREINCUBATION) is “inactive; negative”; the mutagenic call under setting [9] is “inactive; negative”; the mutagenic call (Test System: E. COLI, Strain/Indicator: WP2 UVRA, Metabolic Activation: RAT, LIVER, S-9, KC 500, Method: PREINCUBATION) was “inactive; negative”.
